Reference: the supplement of paper PMC8612539
≈ marks a conversion by molar mass, not a printed value.

System: Pasteurella multocida
Assay: minimum inhibitory concentration (MIC)
Protocol: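 Broth microdilution MIC (Sensititre BOPO7F bovine plate, CLSI methods) of 19 antimicrobials against field isolates of P. multocida, M. haemolytica, H. somni (deep nasopharyngeal swabs) and E. coli, Enterococcus spp. (rectal swabs) from weaned dairy heifers. Incubation 16-24 h at 35 C. MIC is the lowest concentration preventing visible growth. Values with <= or > lie at the tested range limits. Trimethoprim-sulfamethoxazole is given as the trimethoprim component of a 1:19 mixture.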

CCCN1C[C@H](C)[C@@H](O)[C@](C)(O)[C@@H](CC)OC(=O)[C@H](C)[C@@H](O[C@H]2C[C@@](C)(OC)[C@@H](O)[C@H](C)O2)[C@H](C)[C@@H](O[C@@H]2O[C@H](C)C[C@H](N(C)C)[C@H]2O)[C@](C)(O)C[C@H]1C [Gamithromycin]
Conditions	minimum inhibitory concentration [µg/mL]
isolate (source animal id): 10	8 (≈ 10.3 µM)
isolate (source animal id): 11	8 (≈ 10.3 µM)
isolate (source animal id): 12	8 (≈ 10.3 µM)
isolate (source animal id): 19	8 (≈ 10.3 µM)
isolate (source animal id): 23	4 (≈ 5.15 µM)
isolate (source animal id): 26	4 (≈ 5.15 µM)
isolate (source animal id): 98	8 (≈ 10.3 µM)
isolate (source animal id): 104	> 8
isolate (source animal id): 115	> 8
isolate (source animal id): 117	8 (≈ 10.3 µM)
isolate (source animal id): 118	8 (≈ 10.3 µM)
isolate (source animal id): 121	> 8
isolate (source animal id): 124	8 (≈ 10.3 µM)
isolate (source animal id): 125	8 (≈ 10.3 µM)
isolate (source animal id): 128	> 8
isolate (source animal id): 131	> 8
isolate (source animal id): 135	> 8
isolate (source animal id): 136	> 8
isolate (source animal id): 140	> 8
isolate (source animal id): 144	8 (≈ 10.3 µM)
isolate (source animal id): 146	8 (≈ 10.3 µM)
isolate (source animal id): 150	> 8
isolate (source animal id): 151	> 8
isolate (source animal id): 153	> 8
isolate (source animal id): 155	8 (≈ 10.3 µM)
isolate (source animal id): 157	4 (≈ 5.15 µM)
isolate (source animal id): 160	> 8
isolate (source animal id): 164	> 8
isolate (source animal id): 165	> 8
isolate (source animal id): 167	≤ 1
isolate (source animal id): 168	8 (≈ 10.3 µM)
isolate (source animal id): 169	≤ 1
isolate (source animal id): 170	2 (≈ 2.57 µM)
isolate (source animal id): 171	≤ 1
isolate (source animal id): 172	≤ 1
isolate (source animal id): 173	> 8
isolate (source animal id): 174	≤ 1
isolate (source animal id): 175	≤ 1
isolate (source animal id): 176	≤ 1
isolate (source animal id): 177	≤ 1
isolate (source animal id): 178	≤ 1
isolate (source animal id): 179	≤ 1
isolate (source animal id): 182	4 (≈ 5.15 µM)
isolate (source animal id): 192	≤ 1
isolate (source animal id): 193	≤ 1
isolate (source animal id): 195	2 (≈ 2.57 µM)
isolate (source animal id): 196	≤ 1
isolate (source animal id): 197	2 (≈ 2.57 µM)
isolate (source animal id): 198	> 8
isolate (source animal id): 199	≤ 1
isolate (source animal id): 200	≤ 1
isolate (source animal id): 201	≤ 1
isolate (source animal id): 203	≤ 1
isolate (source animal id): 204	≤ 1
isolate (source animal id): 205	> 8
isolate (source animal id): 206	≤ 1
isolate (source animal id): 207	≤ 1
isolate (source animal id): 208	≤ 1
isolate (source animal id): 209	≤ 1
isolate (source animal id): 210	> 8
isolate (source animal id): 213	≤ 1
isolate (source animal id): 216	≤ 1
isolate (source animal id): 223	8 (≈ 10.3 µM)
isolate (source animal id): 227	≤ 1
isolate (source animal id): 229	8 (≈ 10.3 µM)
isolate (source animal id): 233	8 (≈ 10.3 µM)
isolate (source animal id): 234	8 (≈ 10.3 µM)
isolate (source animal id): 237	8 (≈ 10.3 µM)
isolate (source animal id): 241	8 (≈ 10.3 µM)
isolate (source animal id): 245	8 (≈ 10.3 µM)
isolate (source animal id): 247	8 (≈ 10.3 µM)
isolate (source animal id): 250	8 (≈ 10.3 µM)
isolate (source animal id): 254	8 (≈ 10.3 µM)
isolate (source animal id): 255	8 (≈ 10.3 µM)
isolate (source animal id): 258	≤ 1
isolate (source animal id): 261	8 (≈ 10.3 µM)
isolate (source animal id): 262	8 (≈ 10.3 µM)
isolate (source animal id): 269	≤ 1
isolate (source animal id): 270	8 (≈ 10.3 µM)
isolate (source animal id): 274	8 (≈ 10.3 µM)
isolate (source animal id): 275	8 (≈ 10.3 µM)
isolate (source animal id): 276	8 (≈ 10.3 µM)
isolate (source animal id): 277	≤ 1
isolate (source animal id): 278	8 (≈ 10.3 µM)
isolate (source animal id): 279	8 (≈ 10.3 µM)
isolate (source animal id): 280	> 8
isolate (source animal id): 284	> 8
isolate (source animal id): 285	> 8
isolate (source animal id): 287	8 (≈ 10.3 µM)
isolate (source animal id): 290	8 (≈ 10.3 µM)
isolate (source animal id): 294	8 (≈ 10.3 µM)
isolate (source animal id): 295	> 8
isolate (source animal id): 296	8 (≈ 10.3 µM)
isolate (source animal id): 307	8 (≈ 10.3 µM)
isolate (source animal id): 310	8 (≈ 10.3 µM)
isolate (source animal id): 311	8 (≈ 10.3 µM)
isolate (source animal id): 312	> 8
isolate (source animal id): 313	> 8
isolate (source animal id): 315	> 8
isolate (source animal id): 316	> 8
